Measured values as given in patent US20260007601A1, “IONIZABLE CATIONIC LIPID COMPOUND AND COMPOSITION FOR DELIVERING NUCLEIC ACID AND USE THEREOF” (BEIJING YOUCAREKECHUANG PHARMACEUTICAL TECHNOLOGY CO., LTD., priority 2023, published 2026).

Legend:
female BALB/C mice = experiment: Mouse in vivo imaging of Fluc-mRNA LNP formulations; design: average radiation intensity (mRNA expression): unit not given here; conditions: 10 μg Fluc-mRNA LNP intramuscularly
Procedure: The LNP formulation containing 10 μg Fluc-mRNA (prepared according to Example 4) was injected intramuscularly into female BALB/C mice aged 4 to 6 weeks and weighing 17 to 19 g, and the mice were intraperitoneally injected with fluorescent imaging substrates at specific time points (6 h, 24 h, 48 h and 7 d) after administration. The mice moved freely for 5 minutes, and then the average radiation intensity (corresponding to the fluorescence expression intensity) of the protein expressed by the mRNA carried by the LNP in the mice was detected by IVIS Spectrum small animal in vivo imager. The test results are shown in Tables 14 to 17 and FIGS. 12 to 14.

293T cells [1] = experiment: Cell survival rate assay (CCK-8); format: cell-based; conditions: LNP containing 1.5 μg Fluc-mRNA, 24 hours, CCK-8
Procedure: (§1) Cell recovery and passaging: 293T cells were recovered and cultured in culture dishes to the required cell number.
(§2) Plating: The cells in the culture dish were digested, counted, plated in a 96-well plate at 10,000 cells per well, or in a 12-well plate at 150,000 cells per well, and cultured overnight until the cells adhered to the wall.
(§3) Cell recovery and passage: The method was the same as in Example 3.
(§4) Plating: The method was the same as Example 3.
The LNP formulations containing 1.5 μg Fluc-mRNA (prepared according to Example 4, the LNP formulation carrier components are cationic lipids, neutral lipids, structured lipids and polymer-conjugated lipids at a molar ratio of 49:10:39.5:1.5, wherein the cationic lipids are the cationic lipids listed in Table 1) and the Lipofectamine 3000 formulation were added to the cell culture medium of the 96-well plate, and the culture was continued for 24 hours. Then, 10 μL of CCK-8 solution was added to each well, and the culture plate was incubated in the incubator for 1 hour, and the absorbance at 450 nm was measured by a microplate reader.

[2] = Encapsulation rate, drug loading concentration and total RNA concentration detection (RiboGreen); format: physicochemical; conditions: LNP formulation of the named lipid
Excerpt: Encapsulation rate is a key quality attribute of liposomes. It refers to the percentage of drug content encapsulated in the lipid bilayer to the total amount of drug added, which can reflect the degree of drug encapsulation in liposomes. The Chinese Pharmacopoeia stipulates that the encapsulation rate should usually not be less than 80%.
The drug loading capacity is the ratio of the amount of drug in the liposome to the total amount of drug and carrier in the liposome. The drug loading capacity directly affects the clinical application dose of the drug, so the larger the drug loading capacity, the more it can meet clinical needs. The drug loading concentration is proportional to the drug loading capacity, and the relative proportion of the drug loading concentration can represent the relative proportion of the drug loading capacity. The relative proportion of the total RNA concentration can represent the relative proportion of the amount of mRNA carried by the LNP formulation.
1×TE buffer, 0.1% Triton X-100 buffer, and RiboGreen reagent (1:200) and mRNA standard stock solution were prepared.
An appropriate amount of sample was taken and added to an appropriate amount of 1×TE buffer, which was diluted to a solution containing about 2.8 μg of the test sample per 1 mL. Then the sample was added to a 96-well plate, where 50 μL of the diluted test sample or mRNA standard stock solution was added to each well, and then added with 1×TE buffer and 0.1% Triton X-100 buffer. The samples were incubated at 37° C. for 10 minutes, and 100 μL of RiboGreen reagent (1:200) was added to each well of the 96-well plate. The plate was centrifuged, and read using an ELISA reader, and the data was processed.

293T cells [3] = experiment: Fluorescence detection of Fluc-mRNA (cell transfection efficiency of LNP formulations); format: cell-based; conditions: for Relative light unit (RLU): LNP containing 0.3 μg Fluc-mRNA, 24 hours; for Multiples of values that equivalent to YK-201: RLU of YK-201 / RLU of the named lipid; for Multiples of values that equivalent to YK-202: RLU of YK-202 / RLU of the named lipid; for Ratio relative to SM-102: RLU of the named lipid / RLU of SM-102, times that of SM-102; for Multiples of values that equivalent to YK-209: RLU of YK-209 / RLU of the named lipid
Procedure: as §1, §2, §3, §4
The LNP formulation containing 0.3 μg Fluc-mRNA (prepared according to Example 4, the LNP formulation carrier components were cationic lipids, neutral lipids, structured lipids and polymer-conjugated lipids at a molar ratio of 49:10:39.5:1.5, and the cationic lipids were cationic lipids listed in Table 1) was added to the cell culture medium of a 96-well plate, and cultured for 24 hours. After that, the corresponding reagents were added according to the instructions of the Gaussia Luciferase Assay Kit, and the fluorescence expression intensity of each well was detected by the IVIS fluorescence detection system. This experiment verified the transfection efficiency of the LNP formulation in the cell, and the specific detection results are shown in Tables 6-9.

[4] = Particle size and polydispersity index (PDI) of nanolipid particles, dynamic light scattering; format: physicochemical; conditions: LNP formulation prepared from the named cationic lipid, 25° C
Procedure: The particle size and polydispersity index (PDI) were determined by dynamic light scattering method using a Malvern laser particle size analyzer. 10 μL of liposome solution was diluted to 1 mL with RNase-free deionized water and added to a sample pool. Each sample was measured three times. The measurement conditions were: 90° scattering angle, 25° C.

SMILES	average radiation intensity (mRNA expression) (female BALB/C mice; 6 h)	average radiation intensity (mRNA expression) (female BALB/C mice; 24 h)	average radiation intensity (mRNA expression) (female BALB/C mice; 48 h)	average radiation intensity (mRNA expression) (female BALB/C mice; 7 d)	Cell survival rate (293T cells [1])	Drug loading concentration [2]	Encapsulation rate [2]	Total RNA concentration [2]	Relative light unit (RLU) (293T cells [3])	Multiples of values that equivalent to YK-201 (293T cells [3])	Multiples of values that equivalent to YK-202 (293T cells [3])	Ratio relative to SM-102 (293T cells [3])	PDI [4]	Particle size [4]	Multiples of values that equivalent to YK-209 (293T cells [3])
CCCCCCCCCCCOC(=O)CCCCCN(CCO)CCCCCCCC(=O)OC(CCCCCCCC)CCCCCCCC [SM-102, reference compound]	678870	115800	30560	5903	68.55%	25.44 µg/mL	62.3%	35.27 µg/mL	1665874 RLU	17.10	17.98	1.00	19.2%	145 nm	–
CCCCCCCCCCCOC(=O)CCCCCN(CCCCCCCC(=O)OC(CCCCCCCC)CCCCCCCC)CCN(CC)CCO [YK-204, heptadecan-9-yl-8-(2-((2-hydroxyethyl)(ethylamino))ethyl)(6-oxo-6-((undecanyloxy)hexyl)amino)octanoate]	35245	5230	2440	754	42.57%	32.62 µg/mL	75.9%	42.98 µg/mL	363998 RLU	78.25	82.30	0.22	17.7%	193 nm	57.85
CCCCCCCCCCCCC(O)CN(C)CCCCCC(=O)OCC(CCCCCC)CCCCCCCC (stereo not drawn) [HHMA, reference compound]	638870	109650	29445	5312	65.56%	30.6 µg/mL	60.5%	37.84 µg/mL	2099714 RLU	13.56	14.27	1.26	15.1%	135 nm	–
CCCCCCCCCCOC(=O)CCCN(CCCCCC(=O)OCC(CCCCCCCC)CCCCCCCC)CCN(CC)CCO [YK-208]	–	–	–	–	46.68%	37.80 µg/mL	88.2%	42.84 µg/mL	3858487 RLU	7.38	7.76	2.32	24.4%	167 nm	5.46
CCCCCCCCC(CCCCCCCC)COC(=O)CCCCCN(CCCCCC(=O)OCC(CCCCCCCC)CCCCCCCC)CCN(CCO)CCO [YK-212, bis(2-octyldecyl)-6,6-((2-(bis(2-hydroxyethyl)amino)ethyl)azadialkyl)dihexanoate]	–	–	–	–	35.26%	40.25 µg/mL	94.4%	42.62 µg/mL	3910590 RLU	7.28	7.66	2.35	19.2%	172 nm	5.39
CCCCCCCCCCCOC(=O)CCCCCN(CCCCCCCC(=O)OCCC(CCCCCC)CCCCCC)CCN(C)CCO [YK-203]	–	–	–	–	35.56%	38.38 µg/mL	91.0%	42.19 µg/mL	3869614 RLU	7.36	7.74	2.32	23.7%	235 nm	5.44
CCCCCCCCCCOC(=O)CCCN(CCCCCC(=O)OCC(CCCCCCCC)CCCCCCCC)CCN(C)CCOC [YK-216]	–	–	–	–	45.80%	27.36 µg/mL	61.3%	44.64 µg/mL	2280300 RLU	12.49	13.14	1.37	13.7%	219 nm	9.24
CCCCCCC(CCCCCC)CCOC(=O)CCCCCN(CCCCCC(=O)OCCC(CCCCCC)CCCCCC)CCN(CCO)CCO [YK-214, bis(3-hexylnonyl)-6,6-((2-(bis(2-hydroxyethyl)amino)ethyl)azadialkyl)dihexanoate]	–	–	–	–	25.58%	38.16 µg/mL	96.7%	39.46 µg/mL	4582178 RLU	6.22	6.54	2.75	31.5%	203 nm	4.60
CCCCCCCCCCCOC(=O)CCCCCN(CCCCCCCC(=O)OC(CCCCCCCC)CCCCCCCC)CCN(C)CCNC [YK-222]	–	–	–	–	33.75%	25.78 µg/mL	94.0%	27.43 µg/mL	606360 RLU	46.97	49.41	0.36	30.4%	218 nm	34.73
CCCCCCCCC(CCCCCCCC)OC(=O)CCCCCN(CCCCCC(=O)OC(CCCCCCCC)CCCCCCCC)CCN(C)CCO [YK-210, bis(heptadecan-9-yl)-6,6′-((2-(2-hydroxyethyl(methyl)amino)ethyl)azadialkyl)dihexanoate]	–	–	–	–	38.38%	36.50 µg/mL	85.6%	42.62 µg/mL	4628355 RLU	6.15	6.47	2.78	22.9%	224 nm	4.55
